# Source: US8551984B2, “Aminopyrimidines as SYK inhibitors” (Merck Sharp & Dohme Corp., priority 2009, dated 2013)
# Target: recombinant human SYK (GST-hSYK fusion protein) (Homo sapiens, UniProt P43405)
# Experiment: biochemical
# Conditions: RHSYK Activity, Table 54A
# Source text: Homogeneous Time-Resolved Fluorescence (HTRF) Assay for the Recombinant Human SYK Enzyme:
row,IC50 [nM],Structure (SMILES)
1,< 100,Cc1cc(Nc2nccc(C(F)(F)F)n2)cc(-c2cnc(C3(O)CCN(C(=O)C(O)C(F)(F)F)CC3)s2)c1 (racemic) [Example 54A-60]

# Same assay, conditions: Syk IC50, HTRF, recombinant human GST-SYK
row,IC50 [nM],Structure (SMILES)
1,1,Cc1cc(Nc2nccc(C)n2)cc(-c2cnc([C@@]3(O)CC[C@H](C(=O)O)C(C)(C)C3)s2)c1

# Same assay, conditions: rhSYK Activity (IC50), recombinant human GST-SYK 5 pM, ATP 25 μM, biotinylated substrate peptide 250 nM, HTRF, 10-dose titration
row,IC50 [nM],Structure (SMILES)
1,< 100,"Cc1cc(Nc2nccc(OC3CCC(O)CC3)n2)cc(-c2cnc(C(C)(O)C(F)(F)F)s2)c1 (mixture of isomers) [Example 96, 4-{[2-({3-methyl-5-[2-(1,1,1-trifluoro-2-hydroxypropan-2-yl)-1,3-thiazol-5-yl]phenyl}amino)-pyrimidin-4-yl]oxy}cyclohexanol]"
2,< 100,"Cc1cc(Nc2nccc(C(F)(F)F)n2)cc(-c2cnc([C@@H](O)[C@H](O)c3ccc(C(=O)O)cc3)s2)c1 (relative stereo) [Example 146, 4-{(Cis)-1,2-dihydroxy-2-[5-(3-methyl-5-{[4-(trifluoromethyl)pyrimidin-2-yl]amino}phenyl)-1,3-thiazol-2-yl]ethyl}benzoic acid]"
3,< 100,"Cc1cc(Nc2nccc(C(F)(F)F)n2)cc(-c2cnc(C3CCC(C(N)=O)C(C)(C)C3)s2)c1 (single isomer, unassigned) [154(a), 2,2-Dim ethyl-4-[5-(3-methyl-5-{[4-(trifluoromethyl)pyrimidin-2-yl]amino}phenyl)-1,3-thiazol-2-yl]cyclohexanecarboxamide]"
4,< 100,"Cc1cc(Nc2nccc(C(F)(F)F)n2)cc(-c2cnc(C3(O)CCNC(=O)CC3O)s2)c1 (single isomer, unassigned) [161(B), [cis]-4,5-dihydroxy-5-[5-(3-methyl-5-{[4-(trifluoromethyl)pyrimidin-2-yl]amino}phenyl)-1,3-thiazol-2-yl]azepan-2-one]"
5,< 100,"Cc1cc(Nc2nccc(C(F)(F)F)n2)cc(-c2cnc(C3(O)CCC(=O)NCC3O)s2)c1 (single isomer, unassigned) [161(C), [cis]5,6-dihydroxy-5-[5-(3-methyl-5-{[4-(trifluoromethyl)pyrimidin-2-yl]amino}phenyl)-1,3-thiazol-2-yl]azepan-2-one]"
6,< 100,"Cc1cc(Nc2nccc(C(F)(F)F)n2)cc(-c2cnc(CNC(CO)C(C)O)s2)c1 (single isomer, unassigned) [Example 88A-43]"
7,< 100,"Cc1cc(Nc2nccc(C(C)O)n2)cc(-c2cnc(C3(O)CCC(C(=O)O)C(C)(C)C3)s2)c1 (single isomer, unassigned) [Example 100A-14]"
8,< 100,"Cc1cc(Nc2nccc(C(O)C3CC3)n2)cc(-c2cnc(C3(O)CCC(C(=O)O)C(C)(C)C3)s2)c1 (single isomer, unassigned) [Example 100A-18]"
9,< 100,"Cc1cc(Nc2nccc(C(F)C3CC3)n2)cc(-c2cnc(C3(O)CCC(C(=O)O)C(C)(C)C3)s2)c1 (single isomer, unassigned) [Example 100A-21]"
10,< 100,"Cc1cc(Nc2nccc(C(C)(O)C3CC3)n2)cc(-c2cnc(C3(O)CCC(C(=O)O)C(C)(C)C3)s2)c1 (single isomer, unassigned) [Example 100A-25]"
11,100 to 1000,"Cc1cc(Nc2nccc(C(F)(F)F)n2)cc(-c2cnc(C3(O)CCNC(=O)CC3)s2)c1Br (single isomer, unassigned) [Example 111-1]"
12,< 100,"Cc1cc(Nc2nccc(C(F)(F)F)n2)cc(-c2cnc(C3(O)CCNC(=O)CC3)s2)c1Br (single isomer, unassigned) [Example 111-2]"

# Same assay, conditions: rhSYK Activity, Table 10, Formula A
row,IC50 [nM],Structure (SMILES)
1,< 100,"Cc1cc(Nc2nccc(C(C)C)n2)cc(-c2cnc(C3(O)CCNC(=O)CC3)s2)c1 (single isomer, unassigned) [Example 10A-2]"

# Same assay, conditions: rhSYK Activity, Table 33-A
row,IC50 [nM],Structure (SMILES)
1,< 100,"Cc1cc(Nc2ncc(Cl)cn2)cc(-c2cnc(C3(O)CCC(C(=O)O)C(C)(C)C3)s2)c1 (single isomer, unassigned) [Example 33A-43]"
2,100 to 1000,"Cc1cc(Nc2ncc(F)cn2)cc(-c2cnc(C3(O)CCC(C(=O)O)C(C)(C)C3)s2)c1 (single isomer, unassigned) [Example 33A-46]"
3,< 100,"Cc1cc(Nc2ncc(F)cn2)cc(-c2cnc(C3(O)CCC(C(=O)O)C(C)(C)C3)s2)c1 (single isomer, unassigned) [Example 33A-47]"
4,< 100,"COC(=O)C1CCC(O)(c2ncc(-c3cc(CO)cc(Nc4nccc(C(F)(F)F)n4)c3)s2)CC1(C)C (single isomer, unassigned) [Example 33A-50]"
5,< 100,"CC1(C)CC(O)(c2ncc(-c3cc(CO)cc(Nc4nccc(C(F)(F)F)n4)c3)s2)CCC1C(=O)O (single isomer, unassigned) [Example 33A-51]"
6,< 100,"CC1(C)CC(O)(c2ncc(-c3cc(Nc4nccc(C(F)(F)F)n4)cc(C(F)F)c3)s2)CCC1C(=O)O (single isomer, unassigned) [Example 33A-57]"
7,< 100,"CC1(C)CC(O)(c2ncc(-c3cc(F)cc(Nc4nccc(C(F)(F)F)n4)c3)s2)CCC1C(=O)O (single isomer, unassigned) [Example 33A-63]"
8,< 100,"CC1(C)CC(O)(c2ncc(-c3cccc(Nc4nccc(C(F)(F)F)n4)c3)s2)CCC1C(=O)O (single isomer, unassigned) [Example 33A-66]"
9,< 100,"COc1ccnc(Nc2cc(C)cc(-c3cnc(C4(O)CCC(C(=O)O)C(C)(C)C4)s3)c2)n1 (single isomer, unassigned) [Example 33A-72]"
10,< 100,"Cc1cc(Nc2nccc(C(F)(F)F)n2)cc(-c2cnc(C3(O)CCC(C(=O)O)C(C)(C)C3C)s2)c1 (single isomer, unassigned) [Example 33A-77]"

# Same assay, conditions: rhSYK Activity, Table 33B
row,IC50 [nM],Structure (SMILES)
1,< 100,"Cc1cc(Nc2nccc(C(F)(F)F)n2)cc(-c2cnc(C3(O)CCC(CC(=O)O)C3)s2)c1 (single isomer, unassigned) [Example 33B-25]"

# Same assay, conditions: rhSYK Activity, Table 33D
row,IC50 [nM],Structure (SMILES)
1,< 100,"Cc1cc(Nc2nccc(C(F)(F)F)n2)cc(-c2cnc(C(C)(O)CCC(C)(C)C(=O)O)s2)c1 (single isomer, unassigned) [Example 33D-3]"
2,< 100,"Cc1cc(Nc2nccc(C(F)(F)F)n2)cc(-c2cnc(C(C)(O)c3ccc(C(=O)O)s3)s2)c1 (single isomer, unassigned) [Example 33D-21]"

# Same assay, conditions: rhSYK Activity, Table 45
row,IC50 [nM],Structure (SMILES)
1,100 to 1000,"Cc1cc(Nc2nccc(C(F)(F)F)n2)cc(-c2cnc(C3(O)CCCN(C(=O)OC(C)(C)C)CC3)s2)c1 (single isomer, unassigned) [45-1]"

# Same assay, conditions: rhSYK Activity, Table 54D
row,IC50 [nM],Structure (SMILES)
1,< 100,"Cc1cc(Nc2nccc(C(F)(F)F)n2)cc(-c2cnc(C3(O)CCCN(C(=O)CC(N)=O)CC3)s2)c1 (single isomer, unassigned) [Example 54D-20]"
2,< 100,"Cc1cc(Nc2nccc(C(F)(F)F)n2)cc(-c2cnc(C3(O)CCCN(C(=O)CC(=O)O)CC3)s2)c1 (single isomer, unassigned) [Example 54D-25]"
3,< 100,"Cc1cc(Nc2nccc(C(F)(F)F)n2)cc(-c2cnc(C3(O)CCCN(C(=O)C(O)CO)CC3)s2)c1 (single isomer, unassigned) [Example 54D-28]"
4,< 100,"Cc1cc(Nc2nccc(C(F)(F)F)n2)cc(-c2cnc(C3(O)CCCN(C(=O)c4cnn[nH]4)CC3)s2)c1 (single isomer, unassigned) [Example 54D-36]"
5,< 100,"Cc1cc(Nc2nccc(C(F)(F)F)n2)cc(-c2cnc(C3(O)CCCN(C(=O)c4cnon4)CC3)s2)c1 (single isomer, unassigned) [Example 54D-38]"
6,< 100,"Cc1cc(Nc2nccc(C(F)(F)F)n2)cc(-c2cnc(C3(O)CCCN(C(=O)CCC(N)=O)CC3)s2)c1 (single isomer, unassigned) [Example 54D-41]"
7,< 100,"Cc1cc(Nc2nccc(C(F)(F)F)n2)cc(-c2cnc(C3(O)CCCN(C(=O)c4cnnn4C)CC3)s2)c1 (single isomer, unassigned) [Example 54D-50]"
8,< 100,"Cc1cc(Nc2nccc(C(F)(F)F)n2)cc(-c2cnc(C3(O)CCCN(C(=O)Cn4ccnn4)CC3)s2)c1 (single isomer, unassigned) [Example 54D-52]"
9,< 100,"Cc1cc(Nc2nccc(C(F)(F)F)n2)cc(-c2cnc(C3(O)CCCN(C(=O)c4nnnn4C)CC3)s2)c1 (single isomer, unassigned) [Example 54D-57]"
10,< 100,"Cc1cc(Nc2nccc(C(F)(F)F)n2)cc(-c2cnc(C3(O)CCCN(C(=O)Cc4nnn[nH]4)CC3)s2)c1 (single isomer, unassigned) [Example 54D-59]"
11,< 100,"CCOC(=O)CC(=O)N1CCCC(O)(c2ncc(-c3cc(C)cc(Nc4nccc(C(F)(F)F)n4)c3)s2)CC1 (single isomer, unassigned) [Example 54D-75]"
12,< 100,"Cc1cc(Nc2nccc(C(F)(F)F)n2)cc(-c2cnc(C3(O)CCCN(C(=O)C(C)(CO)CO)CC3)s2)c1 (single isomer, unassigned) [Example 54D-79]"
13,< 100,"Cc1cc(Nc2nccc(C(F)(F)F)n2)cc(-c2cnc(C3(O)CCCN(C(=O)c4[nH]nnc4Cl)CC3)s2)c1 (single isomer, unassigned) [Example 54D-100]"
14,< 100,"Cc1cc(Nc2nccc(C(F)(F)F)n2)cc(-c2cnc(C3(O)CCCN(C(=O)c4nn[nH]c4C(F)(F)F)CC3)s2)c1 (single isomer, unassigned) [Example 54D-107]"
15,< 100,"Cc1cc(Nc2nccc(C(F)(F)F)n2)cc(-c2cnc(C3(O)CCCN(C(=O)c4n[nH]c(C(F)(F)F)n4)CC3)s2)c1 (single isomer, unassigned) [Example 54D-109]"
16,< 100,"Cc1cc(Nc2nccc(C(F)(F)F)n2)cc(-c2cnc(C3(O)CCCN(S(N)(=O)=O)CC3)s2)c1 (single isomer, unassigned) [Example 54D-116]"
17,< 100,"Cc1cc(Nc2nccc(C(F)(F)F)n2)cc(-c2cnc(C3(O)CCCN(C(N)=O)CC3)s2)c1 (single isomer, unassigned) [Example 54D-119]"
18,< 100,"Cc1cc(Nc2nccc(C(F)(F)F)n2)cc(-c2cnc(C3(O)CCCN(C(=O)CO)CC3)s2)c1 (single isomer, unassigned) [Example 54D-122]"
19,< 100,"Cc1cc(Nc2nccc(C(F)(F)F)n2)cc(-c2cnc(C3(O)CCCN(C(=O)c4nc[nH]n4)CC3)s2)c1 (single isomer, unassigned) [Example 54D-124]"
